Laboratory results published in patent publication US11667658B2, “Chemical synthesis of the organoarsenical antibiotic arsinothricin” (The Florida International University Board of Trustees, priority 2021, dated 2023).

Test system: PpArsN1, the AST-selective N-acetyltransferase
Assay: Enzymatic N-acetylation of AST by PpArsN1 (HPLC-ICP-MS)
Assay type: biochemical, Pseudomonas putida KT2440
Experimental: Enzymatic N-acetylation of AST (1). PpArsN1, the AST-selective N-acetyltransferase from Pseudomonas putida KT2440, was purified. […] The reaction solution was filtered using an Amicon Ultra centrifugal filter with a 3K cutoff membrane (MilliporeSigma), and arsenic species in the filtrate were analyzed by HPLC-ICP-MS.

Q: Which “conversion to L-N-Ac-AST by PpArsN1 (in words)” value (PpArsN1/AcCoA, HPLC-ICP-MS (FIG. 23)) does the source give for `C[As](=O)(O)CCC(N)C(=O)O` (centres unmarked) [bAST] here?
A: The value was “nearly completely converted”.

Q: How did the “conversion to L-N-Ac-AST by PpArsN1” value (10 μM AST, 0.2 μM PpArsN1, 0.2 mM AcCoA, 37° C., 30 min (FIG. 23)) turn out when `C[As](=O)(O)CCC(N)C(=O)O` (centres unmarked) [sAST] was run?
A: Its value is 50%.
